The text below walks through data of PMC2832307 (Journal of medicinal chemistry, 2009).

Entries after “also recorded” stand apart in the source; their conditions may differ. Read-outs that look alike come from different tables or passages of the source.

For data set [1], the system named is mice. Particulars: cited from earlier work.
Data set [2] relates to premature stop codons. Particulars: cited from earlier work.
Data set [3] has as its system nonsense mutation constructs (p2luc, R3381X, R3X, R245X, G542X, W1282X, Q70X, W402X). Kind of data set: In vitro dual luciferase readthrough assay. Particulars: for reduction in overall translation: highest concentration, Renilla luciferase activity ratio, all eight constructs. It is filed as biochemical.
Data set [4] in a line: Acute intravenous toxicity. Particulars: male, BALB/C, mouse, in vivo. Set-up: species or system mice.
The subject of data set [5] is PCDH15-R3X nonsense mutation. Kind of data set: Ex vivo dual luciferase readthrough assay in COS-7 cells. The data set is classed as cell-based, monkey.
Data set [6] has as its system hair cells of mouse organ of Corti explants. The data set can be described thus: Ototoxicity: hair cell loss in cochlear explants. Particulars: 0.2 mM, basal part. The data set is classed as cell-based.
Data set [7] concerns human CFTR-G542X nonsense mutation. The settings on record: clinical doses, transgenic CF mouse; cited from earlier work.
In data set [8] the test system is human cytoplasmic A site sequence. Particulars: cited from earlier work.

As usually defined, the LD50 is the dose at which mortality reaches 50%. Regarding `NC[C@H]1O[C@H](O[C@H]2[C@H](O[C@@H]3O[C@H](CO)[C@@H](O)[C@H]3O)[C@@H](O)[C@H](N)C[C@@H]2N)[C@H](N)[C@@H](O)[C@@H]1O` [ribostamycin], the LD50 in data set [1] (acute lethal toxicity) is given as 260 mg/kg.

`NCC[C@H](O)C(=O)N[C@@H]1C[C@H](N)[C@@H](O[C@H]2O[C@H](CN)CC[C@H]2N)[C@H](O)[C@H]1O[C@H]1O[C@H](CO)[C@@H](O)[C@H](N)[C@H]1O` [arbekacin]: the LD50 in data set [1] (acute lethal toxicity) is 118 mg/kg.

Consider `NC[C@H]1O[C@H](O[C@H]2[C@H](O)[C@@H](O)[C@H](N)C[C@@H]2N)[C@H](N)[C@@H](O)[C@@H]1O` [neamine], for which the LD50 in data set [1] (acute lethal toxicity) is given as 125 mg/kg.

As to `NC[C@H]1O[C@H](O[C@H]2[C@H](O)[C@@H](O[C@H]3O[C@H](CO)[C@@H](O)[C@H](N)[C@H]3O)[C@H](N)C[C@@H]2N)[C@H](N)C[C@@H]1O` [tobramycin], the suppression activity entry in data set [2] is recorded as “does not have suppression activity”.

Regarding `NC[C@@H]1O[C@H](O[C@H]2[C@@H](O)[C@H](O[C@@H]3[C@@H](O)[C@H](N)C[C@H](N)[C@H]3O[C@H]3O[C@H](CO)[C@@H](O)[C@H](O)[C@H]3N)O[C@@H]2CO)[C@H](N)[C@@H](O)[C@@H]1O` [Paromomycin, paromomycin], the “reduction in overall translation” value in data set [3] was “approximately 40%”.

`NCCC(O)C(=O)NC1CC(N)C(OC2OC(CN)C(O)C(O)C2N)C(O)C1O` (stereo not shown) [N-1-AHB-neamine]: the LD50 in data set [1] (acute lethal toxicity) is 260 mg/kg.

On to butirosin, for which, in data set [1] (acute lethal toxicity), the LD50 is on record as 520 mg/kg.

Take `NC[C@@H]1CC[C@@H](N)[C@@H](O[C@H]2[C@H](O)[C@@H](O[C@H]3O[C@H](CO)[C@@H](O)[C@H](N)[C@H]3O)[C@H](N)C[C@@H]2N)O1` [dibekacin]: the LD50 in data set [1] (acute lethal toxicity) is 71 mg/kg.

Regarding `CNC(C)C1CCC(N)C(OC2C(N)CC(N)C(OC3OCC(C)(O)C(NC)C3O)C2O)O1` (stereo not shown) [Gentamicin, gentamicin], in data set [4], the 50% lethal dose (LD50) at 4 days is 60 mg/kg. In data set [3], the “reduction in overall translation” value is “approximately 50%”. The same compound gave a maximal suppression level in data set [5] (COS-7 cells) of 1.86%. The “hair cell loss in cochlear explants” value in data set [6] is given as “hair cell loss was almost complete; also recorded: cell loss is almost complete”.

With kanamycin A, in data set [2], the readthrough activity result is on record as “does not show measurable readthrough activity”.

As for `NCC[C@H](O)C(=O)N[C@@H]1C[C@H](N)[C@@H](O[C@H]2O[C@H](CO)[C@@H](O)[C@H](O)[C@H]2N)[C@H](O[C@@H]2O[C@H](CN)[C@@H](O)[C@H]2O)[C@H]1O` [compound 2, 5-O-(5-Amino-5-deoxy-β-D-ribofuranosyl)-1-N-[(S)-4-amino-2-hydroxy-butanoyl]paromamine], the “reduction in overall translation” value in data set [3] was “approximately 50%”. The “level of readthrough (rank among four aminoglycosides)” value in data set [3] (in vitro, eight constructs) is “induced the highest level of readthrough”. Further, the “fold more effective (maximal suppression) than compound 1” value in data set [5] (COS-7, vs compound 1) is 1.9 fold. Also, in data set [5] (COS-7, vs gentamicin), the “fold more effective (maximal suppression) than gentamicin” value is 2.8 fold. For the same compound, the “fold more effective (maximal suppression) than paromomycin” value in data set [5] (COS-7, vs paromomycin) was found to be 3.2 fold.

Consider `NCC[C@H](O)C(=O)N[C@@H]1C[C@H](N)[C@@H](O[C@H]2O[C@H](CN)[C@@H](O)[C@H](O)[C@H]2O)[C@H](O)[C@H]1O[C@H]1O[C@H](CO)[C@@H](O)[C@H](N)[C@H]1O` [amikacin], for which the LD50 in data set [1] (acute intravenous toxicity in mice) is on record as 300 mg/kg. Moreover, the “readthrough potency, fold lower than gentamicin” value in data set [2] was “over 10 fold”. Also, the “suppression of CFTR-G542X nonsense mutation” value in data set [7] is “highly effective suppression”.

Regarding `NC[C@H]1O[C@@H](O[C@@H]2[C@@H](O)[C@H](N)C[C@H](N)[C@H]2O[C@H]2O[C@H](CO)[C@@H](O)[C@H](O)[C@H]2N)[C@H](O)[C@@H]1O` [compound 1], the “fold weaker affinity than paromomycin” value in data set [8] is reported as “about 100 fold”.
